Data taken from the NIST ThermoML archive (doi:10.1016/j.jct.2016.03.035).
“And” between values parts separate entries of the source, which are not always exact repeats. Equal entries are not always repeated.

Assay: xn = mol fraction of the nth substance listed
Settings: Gas, Buoyancy - hydrostatic balance with magnetic suspension - two sinkers

C [methane] + CCC
Settings | mass density
273.15 K, 931.05 kPa, x1 = 0.5069 | 13.4744 kg/m3
273.15 K, 971.34 kPa, x1 = 0.5069 | 14.1245 kg/m3
273.15 K, 971.91 kPa, x1 = 0.5069 | 14.1339 kg/m3
273.15 K, 972.48 kPa, x1 = 0.5069 | 14.1428 kg/m3
273.15 K, 980.94 kPa, x1 = 0.5069 | 14.2794 kg/m3
273.15 K, 986.21 kPa, x1 = 0.5069 | 14.3656 kg/m3
273.15 K, 991.45 kPa, x1 = 0.5069 | 14.4504 kg/m3
273.15 K, 1009.5 kPa, x1 = 0.5069 | 14.7466 kg/m3 and 14.7469 kg/m3
273.15 K, 1009.6 kPa, x1 = 0.5069 | 14.7472 kg/m3
273.15 K, 1015.4 kPa, x1 = 0.5069 | 14.8425 kg/m3
273.15 K, 1015.5 kPa, x1 = 0.5069 | 14.8423 kg/m3
273.15 K, 1299.2 kPa, x1 = 0.7498 | 14.1894 kg/m3
273.15 K, 1700.4 kPa, x1 = 0.7498 | 19.0431 kg/m3 and 19.0434 kg/m3
273.15 K, 1999 kPa, x1 = 0.7498 | 22.8336 kg/m3
273.15 K, 1999.7 kPa, x1 = 0.7498 | 22.843 kg/m3
273.15 K, 2000.5 kPa, x1 = 0.7498 | 22.8522 kg/m3
273.15 K, 2295.4 kPa, x1 = 0.7498 | 26.7552 kg/m3
273.15 K, 2297.1 kPa, x1 = 0.7498 | 26.7787 kg/m3
273.15 K, 2297.8 kPa, x1 = 0.7498 | 26.7892 kg/m3
273.15 K, 2309.7 kPa, x1 = 0.7498 | 26.9494 kg/m3
273.15 K, 2310.5 kPa, x1 = 0.7498 | 26.9603 kg/m3
273.15 K, 2311.3 kPa, x1 = 0.7498 | 26.971 kg/m3
273.16 K, 500.9 kPa, x1 = 0.7498 | 5.2231 kg/m3
273.16 K, 1299.2 kPa, x1 = 0.7498 | 14.1894 kg/m3
274.02 K, 674.01 kPa, x1 = 0.2658 | 12.0842 kg/m3
274.13 K, 674.35 kPa, x1 = 0.2658 | 12.084 kg/m3
274.25 K, 674.71 kPa, x1 = 0.2658 | 12.0838 kg/m3
274.37 K, 675.08 kPa, x1 = 0.2658 | 12.0836 kg/m3
274.5 K, 675.47 kPa, x1 = 0.2658 | 12.0837 kg/m3
274.64 K, 675.87 kPa, x1 = 0.2658 | 12.0831 kg/m3
274.78 K, 676.29 kPa, x1 = 0.2658 | 12.0823 kg/m3
274.93 K, 676.74 kPa, x1 = 0.2658 | 12.0821 kg/m3
275.09 K, 677.21 kPa, x1 = 0.2658 | 12.0819 kg/m3
275.26 K, 677.71 kPa, x1 = 0.2658 | 12.0812 kg/m3
275.43 K, 678.23 kPa, x1 = 0.2658 | 12.0807 kg/m3
275.61 K, 678.78 kPa, x1 = 0.2658 | 12.0804 kg/m3
275.81 K, 679.35 kPa, x1 = 0.2658 | 12.0795 kg/m3
276.01 K, 679.96 kPa, x1 = 0.2658 | 12.0795 kg/m3
276.22 K, 680.58 kPa, x1 = 0.2658 | 12.0783 kg/m3
276.44 K, 681.24 kPa, x1 = 0.2658 | 12.0781 kg/m3
276.67 K, 681.92 kPa, x1 = 0.2658 | 12.0776 kg/m3
276.89 K, 682.58 kPa, x1 = 0.2658 | 12.0781 kg/m3
277.08 K, 683.2 kPa, x1 = 0.2658 | 12.0796 kg/m3
277.2 K, 683.7 kPa, x1 = 0.2658 | 12.0865 kg/m3
293.14 K, 149.9 kPa, x1 = 0.2658 | 2.2917 kg/m3 and 2.2913 kg/m3 and 2.2914 kg/m3
293.14 K, 205.57 kPa, x1 = 0.5069 | 2.5567 kg/m3 and 2.5566 kg/m3
293.14 K, 258.04 kPa, x1 = 0.2658 | 3.9962 kg/m3
293.14 K, 355.08 kPa, x1 = 0.2658 | 5.5657 kg/m3
293.14 K, 393.87 kPa, x1 = 0.5069 | 4.9714 kg/m3
293.14 K, 469.3 kPa, x1 = 0.2658 | 7.4654 kg/m3 and 7.465 kg/m3
293.14 K, 568.75 kPa, x1 = 0.2658 | 9.168 kg/m3 and 9.1681 kg/m3
293.14 K, 613.82 kPa, x1 = 0.5069 | 7.8848 kg/m3
293.14 K, 655.64 kPa, x1 = 0.2658 | 10.6962 kg/m3
293.14 K, 955.23 kPa, x1 = 0.2658 | 16.2976 kg/m3
293.14 K, 1006.2 kPa, x1 = 0.5069 | 13.3635 kg/m3 and 13.3634 kg/m3
293.14 K, 1056.3 kPa, x1 = 0.2658 | 18.3228 kg/m3 and 18.3227 kg/m3 and 18.3219 kg/m3
293.14 K, 1105.6 kPa, x1 = 0.2658 | 19.3403 kg/m3
293.14 K, 1105.7 kPa, x1 = 0.2658 | 19.3405 kg/m3
293.14 K, 1209.2 kPa, x1 = 0.5069 | 16.3578 kg/m3
293.14 K, 1399.6 kPa, x1 = 0.5069 | 19.2779 kg/m3
293.14 K, 1807.2 kPa, x1 = 0.5069 | 25.9505 kg/m3 and 25.9502 kg/m3
293.15 K, 205.57 kPa, x1 = 0.5069 | 2.5568 kg/m3
293.15 K, 258.04 kPa, x1 = 0.2658 | 3.9961 kg/m3 and 3.9961 kg/m3
293.15 K, 355.08 kPa, x1 = 0.2658 | 5.5657 kg/m3 and 5.5657 kg/m3
293.15 K, 393.88 kPa, x1 = 0.5069 | 4.9713 kg/m3 and 4.9715 kg/m3
293.15 K, 469.3 kPa, x1 = 0.2658 | 7.4651 kg/m3
293.15 K, 568.76 kPa, x1 = 0.2658 | 9.1679 kg/m3
293.15 K, 613.83 kPa, x1 = 0.5069 | 7.885 kg/m3 and 7.8849 kg/m3
293.15 K, 655.65 kPa, x1 = 0.2658 | 10.6965 kg/m3 and 10.6961 kg/m3
293.15 K, 803.71 kPa, x1 = 0.5069 | 10.4888 kg/m3
293.15 K, 803.74 kPa, x1 = 0.5069 | 10.4889 kg/m3
293.15 K, 803.76 kPa, x1 = 0.5069 | 10.4892 kg/m3
293.15 K, 857.4 kPa, x1 = 0.2658 | 14.4071 kg/m3 and 14.4072 kg/m3
293.15 K, 955.25 kPa, x1 = 0.2658 | 16.2978 kg/m3 and 16.2977 kg/m3
293.15 K, 1006.2 kPa, x1 = 0.5069 | 13.3633 kg/m3
293.15 K, 1105.7 kPa, x1 = 0.2658 | 19.3404 kg/m3
293.15 K, 1209.4 kPa, x1 = 0.5069 | 16.361 kg/m3
293.15 K, 1209.7 kPa, x1 = 0.5069 | 16.3642 kg/m3
293.15 K, 1399.6 kPa, x1 = 0.5069 | 19.2776 kg/m3
293.15 K, 1605.7 kPa, x1 = 0.5069 | 22.5751 kg/m3
293.15 K, 1605.8 kPa, x1 = 0.5069 | 22.5767 kg/m3 and 22.5758 kg/m3
293.15 K, 1807.2 kPa, x1 = 0.5069 | 25.9502 kg/m3
294.01 K, 1223.6 kPa, x1 = 0.2658 | 21.7481 kg/m3
294.04 K, 1223.7 kPa, x1 = 0.2658 | 21.7478 kg/m3
294.06 K, 1223.9 kPa, x1 = 0.2658 | 21.7477 kg/m3
294.09 K, 1224 kPa, x1 = 0.2658 | 21.7474 kg/m3
294.12 K, 1224.2 kPa, x1 = 0.2658 | 21.747 kg/m3
294.15 K, 1224.3 kPa, x1 = 0.2658 | 21.7472 kg/m3
294.18 K, 1224.5 kPa, x1 = 0.2658 | 21.7471 kg/m3
294.21 K, 1224.7 kPa, x1 = 0.2658 | 21.7472 kg/m3
294.25 K, 1224.9 kPa, x1 = 0.2658 | 21.7472 kg/m3
294.28 K, 1225.2 kPa, x1 = 0.2658 | 21.747 kg/m3
294.32 K, 1225.4 kPa, x1 = 0.2658 | 21.747 kg/m3
294.37 K, 1225.6 kPa, x1 = 0.2658 | 21.747 kg/m3
294.41 K, 1225.9 kPa, x1 = 0.2658 | 21.7466 kg/m3
294.46 K, 1226.2 kPa, x1 = 0.2658 | 21.7464 kg/m3
294.5 K, 1226.4 kPa, x1 = 0.2658 | 21.7465 kg/m3
294.56 K, 1226.7 kPa, x1 = 0.2658 | 21.7464 kg/m3
294.61 K, 1227 kPa, x1 = 0.2658 | 21.746 kg/m3
294.67 K, 1227.4 kPa, x1 = 0.2658 | 21.7447 kg/m3
294.74 K, 1227.7 kPa, x1 = 0.2658 | 21.744 kg/m3
294.81 K, 1228.1 kPa, x1 = 0.2658 | 21.7437 kg/m3
294.88 K, 1228.5 kPa, x1 = 0.2658 | 21.7435 kg/m3
294.95 K, 1228.9 kPa, x1 = 0.2658 | 21.743 kg/m3
295.11 K, 1229.9 kPa, x1 = 0.2658 | 21.7426 kg/m3
295.2 K, 1230.4 kPa, x1 = 0.2658 | 21.7417 kg/m3
295.29 K, 1230.9 kPa, x1 = 0.2658 | 21.741 kg/m3
295.39 K, 1231.4 kPa, x1 = 0.2658 | 21.7403 kg/m3
295.5 K, 1232 kPa, x1 = 0.2658 | 21.7395 kg/m3
295.6 K, 1232.6 kPa, x1 = 0.2658 | 21.7391 kg/m3
295.72 K, 1233.3 kPa, x1 = 0.2658 | 21.738 kg/m3
295.84 K, 1234 kPa, x1 = 0.2658 | 21.7373 kg/m3
295.97 K, 1234.7 kPa, x1 = 0.2658 | 21.7364 kg/m3
296.1 K, 1235.4 kPa, x1 = 0.2658 | 21.7356 kg/m3
296.24 K, 1236.2 kPa, x1 = 0.2658 | 21.7346 kg/m3
296.39 K, 1237 kPa, x1 = 0.2658 | 21.7335 kg/m3
296.55 K, 1237.9 kPa, x1 = 0.2658 | 21.7324 kg/m3
296.71 K, 1238.8 kPa, x1 = 0.2658 | 21.731 kg/m3
296.88 K, 1239.8 kPa, x1 = 0.2658 | 21.7302 kg/m3
297.07 K, 1240.8 kPa, x1 = 0.2658 | 21.7284 kg/m3
297.26 K, 1241.9 kPa, x1 = 0.2658 | 21.7273 kg/m3
297.45 K, 1243 kPa, x1 = 0.2658 | 21.7257 kg/m3
297.66 K, 1244.1 kPa, x1 = 0.2658 | 21.7254 kg/m3
297.86 K, 1245.3 kPa, x1 = 0.2658 | 21.7253 kg/m3
298.04 K, 1246.4 kPa, x1 = 0.2658 | 21.7265 kg/m3
298.15 K, 1247.3 kPa, x1 = 0.2658 | 21.7319 kg/m3
